Among the data in ChEMBL document CHEMBL4052809, “Development of a highly reliable assay for ubiquitin-specific protease 2 inhibitors” (Bioorg Med Chem Lett, 2017) are inhibition and IC50 values, retold here.

Active and inactive are the calls of the source. The calls are words filed in the database; no cut-off is given here.

Test [1] addresses T1, Ubiquitin carboxyl-terminal hydrolase 2 (Homo sapiens) (UniProt O75604).
T1 sequence (whole entry): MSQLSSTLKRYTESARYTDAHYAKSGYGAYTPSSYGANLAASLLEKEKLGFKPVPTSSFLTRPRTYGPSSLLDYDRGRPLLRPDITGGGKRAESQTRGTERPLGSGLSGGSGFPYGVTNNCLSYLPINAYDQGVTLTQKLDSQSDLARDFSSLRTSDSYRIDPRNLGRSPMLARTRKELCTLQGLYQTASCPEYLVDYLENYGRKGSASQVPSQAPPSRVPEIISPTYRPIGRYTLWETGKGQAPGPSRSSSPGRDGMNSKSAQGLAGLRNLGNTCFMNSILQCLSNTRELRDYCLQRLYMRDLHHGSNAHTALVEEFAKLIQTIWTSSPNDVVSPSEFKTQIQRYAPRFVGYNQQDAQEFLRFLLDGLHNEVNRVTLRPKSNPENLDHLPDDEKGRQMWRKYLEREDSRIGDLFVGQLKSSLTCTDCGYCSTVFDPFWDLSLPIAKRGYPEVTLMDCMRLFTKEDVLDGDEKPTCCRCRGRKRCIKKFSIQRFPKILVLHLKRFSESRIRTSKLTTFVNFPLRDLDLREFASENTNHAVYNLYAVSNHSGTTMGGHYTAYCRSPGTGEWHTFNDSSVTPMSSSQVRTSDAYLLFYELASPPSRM
As to the kind of experiment: Inhibition of recombinant human N-terminal His-tagged USP2 catalytic domain (258 to 605 residues) expressed in Escherichia coli BL21(DE3) at 100 uM using human N-terminal GST-tagged UBA52 as substrate pretreated for 10 mins followed by substrate addition after 60 mins by coomassie staining based assay.

Test [2] addresses T2, Ubiquitin carboxyl-terminal hydrolase 2 (Homo sapiens, UniProt O75604).
T2 sequence (O75604 whole entry): T1 sequence (whole entry)
As to the kind of experiment: Inhibition of recombinant human N-terminal His-tagged USP2 catalytic domain (258 to 605 residues) expressed in Escherichia coli BL21(DE3) using human N-terminal GST-tagged UBA52 as substrate pretreated for 10 mins followed by substrate addition after 60 mins by coomassie staining based assay.

As to `CC(=O)Nc1cccc(CNC(=O)c2sc3ccccc3c2OCc2ccccc2)c1`, the inhibition result in test [1] is “Active”. In test [2], the IC50 is 66.1 to 74.3 µM.
